Assay results: ChEMBL document CHEMBL4359863, “Structure-guided development of purine amide, hydroxamate, and amidoxime for the inhibition of non-small cell lung cancer” (Eur J Med Chem, 2019)
Calls of active or inactive are those of the source. The calls are words filed in the database; no cut-off is given here.

Assays:
Tubulin (Homo sapiens) [1] = target: T1, Tubulin (Homo sapiens) (UniProt P68371+Q9H4B7+P0DPH7+P68366+Q13509+Q71U36+P04350+Q3ZCM7+P07437+P68363+Q9BQE3+Q6PEY2+Q13885+Q9BVA1+Q9BUF5); test: Induction of microtubule fragmentation in human NCI-H1975 cells at 50 nM incubated for 12 hrs by DAPI staining based laser confocal microscopic method; format: cell-based
NCI-H1975 = test: Antiproliferative activity against human NCI-H1975 cells incubated for 48 hrs by celltiter-Glo assay; format: functional, cell-based; settings: NCI-H1975, 48 h
[2] = target: Katanin p60 ATPase-containing subunit A1 (Homo sapiens) (UniProt O75449); test: Binding affinity to katanin p60 in human NCI-H1975 cells using biotin labelled compound incubated for 16 hrs by streptavidin based immunoprecipitation method; format: cell-based
Chain of Katanin p60 ATPase-containing subunit A1 (Homo sapiens) (O75449 whole entry, the tested form may be a part): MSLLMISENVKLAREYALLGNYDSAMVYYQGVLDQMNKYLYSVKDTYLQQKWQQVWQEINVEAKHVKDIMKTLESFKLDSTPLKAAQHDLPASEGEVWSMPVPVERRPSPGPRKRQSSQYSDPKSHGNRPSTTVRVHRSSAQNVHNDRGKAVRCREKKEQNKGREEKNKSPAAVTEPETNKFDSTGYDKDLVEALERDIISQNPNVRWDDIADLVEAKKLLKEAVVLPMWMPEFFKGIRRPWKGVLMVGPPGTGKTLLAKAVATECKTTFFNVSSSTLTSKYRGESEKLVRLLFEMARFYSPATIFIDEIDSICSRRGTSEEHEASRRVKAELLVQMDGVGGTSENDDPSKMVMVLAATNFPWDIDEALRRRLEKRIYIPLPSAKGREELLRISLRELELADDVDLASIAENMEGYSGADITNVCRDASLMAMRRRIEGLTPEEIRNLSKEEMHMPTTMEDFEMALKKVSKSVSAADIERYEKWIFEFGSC

Tubulin (Homo sapiens) [3] = target: T1, Tubulin (Homo sapiens); test: Induction of microtubule fragmentation in human NCI-H1975 cells at 140 nM incubated for 12 hrs by DAPI staining based laser confocal microscopic method; format: cell-based
Tubulin (Homo sapiens) [4] = target: T1, Tubulin (Homo sapiens); test: Induction of microtubule fragmentation in human NCI-H1975 cells at 30 nM incubated for 12 hrs by DAPI staining based laser confocal microscopic method; format: cell-based

With `CCOc1ccc(-c2nc(/C(N)=N/O)c3[nH]c(=O)n(-c4ccccc4OC)c3n2)cc1` the Activity (Tubulin (Homo sapiens) [1]) was “Active”.

An IC50 (NCI-H1975) of 7.6 µM was found for `COc1ccccc1-n1c(=O)[nH]c2c(C(N)=O)nc(-c3ccc4c(c3)OCO4)nc21` in this work.

In the case of `CCOc1ccc(-c2nc(C(N)=O)c3[nH]c(=O)n(-c4cccc(C(=O)NCCCCCNC(=O)CCCC[C@@H]5SC[C@@H]6NC(=O)N[C@@H]65)c4)c3n2)cc1`, the Activity [2] is reported as “Active”.

With `CCOc1ccc(-c2nc(C(=O)NO)c3[nH]c(=O)n(-c4ccccc4OC)c3n2)cc1` the Activity (Tubulin (Homo sapiens) [3]) was “Active”.

For `CC(C)(C)OC(=O)NCCCCCNC(=O)CCCC[C@@H]1SC[C@@H]2NC(=O)N[C@@H]21`, the Activity [2] was “inactive”.

`CCOc1ccc(-c2nc(/C(N)=N/O)c3[nH]c(=O)n(-c4cccc(C(=O)NCCCCCNC(=O)CCCC[C@@H]5SC[C@@H]6NC(=O)N[C@@H]65)c4)c3n2)cc1` was tested, and the Activity [2] was “Active”.

`CCOc1ccc(-c2nc(C(N)=O)c3[nH]c(=O)n(-c4ccccc4OC)c3n2)cc1` was tested, and the Activity (Tubulin (Homo sapiens) [4]) was “Active”.
